Source: PubChem BioAssay (NCI)
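Five concentrations, 48 hours, 96-well plates. GI50 is the concentration that inhibits growth by half. At the TGI there is no net growth.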

Assays:
Test in all cases: growth of human tumour cells (NCI), 48 h
[1] = tested on: 786-0 renal
[2] = tested on: A498 renal
[3] = tested on: HCC-2998 colon
[4] = tested on: HCT-15 colon
[5] = tested on: LOX IMVI melanoma
[6] = tested on: M14 melanoma
[7] = tested on: TK-10 renal
[8] = tested on: NCI-H226 lung
[9] = tested on: OVCAR-5 ovarian
[10] = tested on: MALME-3M melanoma

Compound	TGI [1] [µM]	TGI [2] [µM]	TGI [3] [µM]	TGI [4] [µM]	TGI [5] [µM]	TGI [6] [µM]	TGI [7] [µM]	TGI [8] [µM]	TGI [9] [µM]	GI50 [1] [µM]	GI50 [3] [µM]	GI50 [4] [µM]	GI50 [6] [µM]	GI50 [10] [µM]	TGI [10] [µM]	GI50 [8] [µM]	GI50 [9] [µM]	GI50 [7] [µM]	GI50 [2] [µM]	GI50 [5] [µM]
COC(=O)/C(C#N)=C(\N)C(Cl)(Cl)Cl	14.4	8.22	9.41	8.43	10.8	3.31	7.55	–	–	–	–	–	–	–	–	–	–	–	–	–
C=CCC1(C(=O)OC(C)(C)C)C(OC)=C(C(=O)OC(C)(C)C)C2C1C(C(=O)OC(C)(C)C)=C(OC)C2(CC=C)C(=O)OC(C)(C)C (centres undefined)	> 100	–	> 100	> 100	–	> 100	> 100	> 100	> 100	–	–	–	–	–	–	–	–	–	–	–
N#C/C(=N\Nc1ccccc1)C(=O)Nc1cc(-c2ccccc2)nn1-c1ccccc1	16.3	–	> 100	> 100	–	> 100	> 100	> 100	> 100	3.04	3.81	2.98	2.68	2.84	> 100	2.8	3.39	4.27	–	–
CCCCCCCC(=O)SCC/C=C/[C@@H]1CC(=O)NCc2nc(cs2)C2=N[C@@](C)(CS2)C(=O)N[C@@H](C(C)C)C(=O)N1	19.7	0.333	0.408	97	0.0468	> 100	0.316	22.2	> 100	0.139	0.0224	3.42	0.0323	–	–	0.906	0.0118	0.0175	0.0244	0.0198
Cc1ccc2nc3cc(C)c(=O)cc-3sc2c1	> 100	–	> 100	> 100	–	> 100	> 100	> 100	> 100	–	–	–	–	–	> 100	–	–	–	–	–
CCCN(CCC)C(=O)c1nc(N)nc(-c2ccc(OC)cc2)c1-c1ccc(OC)cc1	> 100	> 100	–	> 100	–	> 100	> 100	> 100	> 100	–	–	–	–	–	> 100	–	–	–	–	–
COC1CCC(OC)C(C2(C3CC(OC)CCC3OC)OC(=O)c3ccccc32)C1 (centres undefined)	> 100	> 100	> 100	> 100	–	> 100	> 100	> 100	> 100	–	–	–	–	–	> 100	–	–	–	–	–
Cc1nc(/C=C2\C(=O)C=Cc3ccccc32)c(O)o1	> 100	> 100	> 100	> 100	–	> 100	–	–	> 100	–	–	–	–	–	> 100	–	–	–	–	–
O=C1C=Cc2c1ccc1ccccc21	65.2	–	–	> 100	61.8	60.3	54.9	> 100	67.4	21.3	–	24.1	18.9	–	–	16.6	16.1	15.9	–	22
ClCc1ccccc1Cn1cnc2c(Cl)ncnc21	38.4	32.2	3.54	4.71	5.21	3.74	46.7	12.5	6.53	17.7	1.67	2.07	1.94	–	–	4.59	2.46	23.1	17.4	2.14
NC(=O)c1cccc(OCC(O)CO)c1 (centres undefined)	> 100	> 100	> 100	> 100	–	> 100	> 100	> 100	> 100	–	–	–	–	–	–	–	–	–	–	–
Cc1ccc(NC(=O)/C(Cc2cc(=O)oc3cc(O)ccc23)=N\NC(C)(C)C)cc1C	> 100	> 100	> 100	> 100	> 100	> 100	–	> 100	–	–	–	–	–	–	–	–	–	–	–	–
COc1cc(C(=O)O[C@H](C(=O)NCCN(C)CCNC(=O)[C@@H](OC(=O)c2cc(OC)cc3c(C)cccc23)[C@]2(C)CO2)[C@]2(C)CO2)c2cccc(C)c2c1	0.179	2.82	0.771	1.02	–	–	1.57	0.721	2.75	–	< 0.0241	0.0109	–	–	–	0.182	0.217	0.348	0.888	< 0.01
COc1cc2c(cc1OC)C1Cc3ccc(OC)c(OC)c3C[N+]1([O-])CC2 (centres undefined)	> 100	> 100	> 100	–	–	> 100	> 100	–	> 100	–	–	–	–	–	> 100	–	–	–	–	–
CCCCCC[C@@H](C)NC(=O)c1ccc(Nc2nc3ccccc3c3occc23)cc1	26.3	7.54	9.16	> 100	42.4	8.3	70.2	–	> 100	2.9	2.51	8.93	2.23	–	–	–	5.72	18.5	2.4	19.3
